Active and inactive are the calls of the source. No cut-off for these calls is given here.
Tests used:
[1] = tested on: MDA-MB-231; assay: Antiproliferative activity against human MDA-MB-231 cells measured by MTT assay; format: functional, cell-based
[2] = tested on: MDA-MB-231; assay: Antitumour activity against human MDA-MB-231 cells xenografted in BALB/c nude mouse assessed as upregulation of Bax level by western blot; format: functional, cell-based
[3] = tested on: MCF7; assay: Induction of apoptosis in human MCF-7 cells assessed as decrease in Bcl-2 level at 1.67 to 15 uM measured after 24 hrs by Western blot analysis; format: functional, cell-based; conditions: dose 1.67-15 µM
[4] = tested on: MDA-MB-231; assay: Inhibition of PI3K p85 phosphorylation in human MDA-MB-231 cells by Western blot analysis; format: cell-based
[5] = tested on: MDA-MB-231; assay: Inhibition of PTP1B expression in human MDA-MB-231 cells by Western blot analysis; format: functional, cell-based
[6] = tested on: MDA-MB-231; assay: Induction of apoptosis in human MDA-MB-231 cells assessed as increase in production of cleaved caspase-9 at 0.56 to 5 uM measured after 24 hrs by Western blot analysis; format: functional, cell-based; conditions: dose 0.56-5 µM
[7] = tested on: MDA-MB-231; assay: Antitumour activity against human MDA-MB-231 cells xenografted in BALB/c nude mouse assessed as tumour growth inhibition at 30 mg/kg, ip administered once for every other day for 20 days relative to control; format: functional; conditions: MDA-MB-231, ip, 480 h, time 20 day, read-out: TGI
[8] = tested on: MDA-MB-231; assay: Cell cycle arrest in human MDA-MB-231 cells assessed as downregulation of CDK4 expression by Western blot analysis; format: functional, cell-based
[9] = tested on: MCF7; assay: Cell cycle arrest in human MCF-7 cells assessed as downregulation of CDK2 expression by Western blot analysis; format: functional, cell-based
[10] = tested on: MDA-MB-231; assay: Antitumour activity against human MDA-MB-231 cells xenografted in BALB/c nude mouse assessed as upregulation of p21 level at 15 to 30 mg/kg, ip administered once for every other day for 20 days by Western blot analysis; format: functional, organism-based; conditions: dose 15-30 mg/kg, time 20.0 day
[11] = tested on: MCF7; assay: Effect on Akt expression in human MCF7 cells by Western blot analysis; format: functional, cell-based
[12] = tested on: MCF7; assay: Antiproliferative activity against human MCF-7 cells assessed as effect on cell viability at 1.67-15 uM for 24 hrs measured by MTT assay; format: functional, cell-based
[13] = tested on: MCF7; assay: Inhibition of PTP1B expression in human MCF7 cells by Western blot analysis; format: functional, cell-based
[14] = tested on: MDA-MB-231; assay: Cell cycle arrest in human MDA-MB-231 cells assessed as downregulation of CDK2 expression by Western blot analysis; format: functional, cell-based
[15] = tested on: MCF7; assay: Induction of mitochondrial apoptosis in human MCF7 cells assessed as viable cells at 15 uM measured after 24 hrs by FITC -annexin V/PI double staining based flow cytometric analysis (reference value: 93.2%); format: functional; conditions: read-out: Activity
[16] = tested on: MCF7; assay: Induction of apoptosis in human MCF-7 cells assessed as increase in production of cleaved caspase-3 at 1.67 to 15 uM measured after 24 hrs by Western blot analysis; format: functional, cell-based; conditions: dose 1.67-15 µM
[17] = tested on: MDA-MB-231; assay: Cell cycle arrest in human MDA-MB-231 cells assessed as accumulation of cells at G0/G1 phase at 5 uM measured after 24 hrs by propidium iodide staining based flow cytometry (reference value: 44%); format: functional
[18] = tested on: MCF7; assay: Antiproliferative activity against human MCF-7 cells measured by MTT assay; format: functional, cell-based
[19] = tested on: MDA-MB-231; assay: Cell cycle arrest in human MDA-MB-231 cells assessed as downregulation of cyclin D3 expression by Western blot analysis; format: functional, cell-based
[20] = tested on: MCF7; assay: Induction of mitochondrial apoptosis in human MCF7 cells assessed as early apoptotic cells at 15 uM measured after 24 hrs by FITC -annexin V/PI double staining based flow cytometric analysis (reference value: 2.4%); format: functional
[21] = tested on: MCF7; assay: Cell cycle arrest in human MCF-7 cells assessed as downregulation of cyclin E1 expression by Western blot analysis; format: functional, cell-based
[22] = tested on: MDA-MB-231; assay: Antitumour activity against human MDA-MB-231 cells xenografted in BALB/c nude mouse assessed as downregulation of cyclin E1 level at 15 to 30 mg/kg, ip administered once for every other day for 20 days by Western blot analysis; format: functional, organism-based; conditions: dose 15-30 mg/kg, time 20.0 day
[23] = tested on: MCF7; assay: Induction of apoptosis in human MCF-7 cells assessed as increase in production of cleaved caspase-9 at 1.67 to 15 uM measured after 24 hrs by Western blot analysis; format: functional, cell-based; conditions: dose 1.67-15 µM
[24] = tested on: MCF7; assay: Induction of mitochondrial apoptosis in human MCF-7 cells assessed as total apoptotic cells by fluorescein isothiocyanate -annexin V/PI double staining based flow cytometric analysis (reference value: 4.4%); format: functional
[25] = tested on: MDA-MB-231; assay: Induction of mitochondrial apoptosis in human MDA-MB-231 cells assessed as early apoptotic cells at 5 uM measured after 24 hrs by FITC -annexin V/PI double staining based flow cytometric analysis (reference value: 1.2%); format: functional
[26] = tested on: MDA-MB-231; assay: Induction of apoptosis in human MDA-MB-231 cells assessed as decrease in Bcl-2 level at 0.56 to 5 uM measured after 24 hrs by Western blot analysis; format: functional, cell-based; conditions: dose 0.56-5 µM
[27] = tested on: MCF7; assay: Cell cycle arrest in human MCF7 cells assessed as accumulation of cells at S phase at 15 uM measured after 24 hrs by propidium iodide staining based flow cytometry (reference value: 16.8%); format: functional
[28] = tested on: MDA-MB-231; assay: Cell cycle arrest in human MDA-MB-231 cells assessed as downregulation of cyclin E1 expression by Western blot analysis; format: functional, cell-based
[29] = tested on: MDA-MB-231; assay: Induction of mitochondrial apoptosis in human MDA-MB-231 cells assessed as total apoptotic cells by fluorescein isothiocyanate -annexin V/PI double staining based flow cytometric analysis (reference value: 3.5%); format: functional
[30] = tested on: MDA-MB-231; assay: Cytotoxicity against human MDA-MB-231 cells measured by MTT assay; format: functional, cell-based
[31] = tested on: MCF7; assay: Cell cycle arrest in human MCF-7 cells assessed as downregulation of cyclin D3 expression by Western blot analysis; format: functional, cell-based
[32] = tested on: MDA-MB-231; assay: Antitumour activity against human MDA-MB-231 cells xenografted in BALB/c nude mouse assessed as upregulation of cleaved caspase-3 level at 15 to 30 mg/kg, ip administered once for every other day for 20 days by Western blot analysis; format: functional, organism-based; conditions: dose 15-30 mg/kg, time 20.0 day
[33] = tested on: MDA-MB-231; assay: Cell cycle arrest in human MDA-MB-231 cells assessed as downregulation of cyclin D1 expression by Western blot analysis; format: functional, cell-based
[34] = tested on: MDA-MB-231; assay: Antiproliferative activity against human MDA-MB-231 cells assessed as effect on cell viability at 0.56-5 uM for 24 hrs measured by MTT assay; format: functional, cell-based
[35] = tested on: MDA-MB-231; assay: Induction of apoptosis in human MDA-MB-231 cells assessed as upregulation of cleaved poly(ADP-ribose) polymerase level at 0.56 to 5 uM measured after 24 hrs by Western blot analysis; format: functional, cell-based; conditions: dose 0.56-5 µM
[36] = tested on: MCF7; assay: Effect on PI3K p85 expression in human MCF7 cells by Western blot analysis; format: functional, cell-based
[37] = tested on: MCF7; assay: Inhibition of PI3K in human MCF7 assessed as Akt phosphorylation by Western blot analysis
[38] = tested on: MDA-MB-231; assay: Induction of apoptosis in human MDA-MB-231 cells assessed as increase in production of cleaved caspase-3 at 0.56 to 5 uM measured after 24 hrs by Western blot analysis; format: functional, cell-based; conditions: dose 0.56-5 µM
[39] = tested on: MCF7; assay: Cytotoxicity against human MCF-7 cells measured by MTT assay; format: functional, cell-based
[40] = tested on: MCF7; assay: Induction of apoptosis in human MCF-7 cells assessed as increase in Bax protein expression at 1.67 to 15 uM measured after 24 hrs by Western blot analysis; format: functional, cell-based; conditions: dose 1.67-15 µM

CCCC/C=C/CCCCCCCCCC1(O)CC(=O)c2c(O)c(C)c(O)c(C)c2O1 (stereo not given)
IC50 [1]: 6.79 µM
Activity [2]: Active
Activity [3]: Dose-Dependent Effect
inhibition [4]: Dose-Dependent Effect
Activity [5]: Active
Activity [6]: Dose-Dependent Effect
inhibition in vivo at 30 mg/kg [7]: 79.3%
Activity [8]: Dose-Dependent Effect
Activity [9]: Dose-Dependent Effect
Activity [10]: Active
Activity [11]: inactive
Activity [12]: inactive
Activity [13]: Active
Activity [14]: Dose-Dependent Effect
viability at 15 µM [15]: 78.7%
Activity [16]: Dose-Dependent Effect
Activity [17]: 62.4%
IC50 [18]: 17.5 µM
Activity [19]: Dose-Dependent Effect
Activity [20]: 7.8%
Activity [21]: Dose-Dependent Effect
Activity [22]: Active
Activity [23]: Dose-Dependent Effect
Activity [24]: 13.6%
Activity [25]: 4.8%
Activity [26]: Dose-Dependent Effect
Activity [27]: 10.3%
Activity [28]: Dose-Dependent Effect
Activity [29]: 11.8%
IC50 [30]: 6.79 µM
Activity [31]: Dose-Dependent Effect
Activity [32]: Active
Activity [33]: Dose-Dependent Effect
Activity [34]: inactive
Activity [35]: Active
Activity [36]: inactive
inhibition [37]: Dose-Dependent Effect
Activity [38]: Dose-Dependent Effect
IC50 [39]: 17.5 µM
Activity [40]: Dose-Dependent Effect

From ChEMBL document CHEMBL5030514, “Discovery of Anti-TNBC Agents Targeting PTP1B: Total Synthesis, Structure-Activity Relationship, In Vitro and In Vivo Investigations of Jamunones” (J Med Chem, 2021)
